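Grown in 96-well plates, cells were treated for 48 hours with each compound at five concentrations. Insufficient inhibition: endpoint recorded as highest concentration tested. GI50 is the concentration that inhibits growth by half.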 Activity calls are given as the source filed them. Cut-off read from the data, not from the text of the source: active = GI50 up to about 1.1 µM and inactive = higher.
Key:
Assay in all cases: growth of human tumour cells (NCI), 48 h
TK-10 = tested on: TK-10
OVCAR-8 = tested on: OVCAR-8
NCI-H522 = tested on: NCI-H522
HL-60 = tested on: HL-60
NCI-H23 = tested on: NCI-H23
HOP-92 = tested on: HOP-92
A549 = tested on: A549
SN12C = tested on: SN12C
ACHN = tested on: ACHN
OVCAR-3 = tested on: OVCAR-3
SF-268 = tested on: SF-268
COLO 205 = tested on: COLO 205
EKVX = tested on: EKVX
CCRF-CEM = tested on: CCRF-CEM
SF-539 = tested on: SF-539
IGROV-1 = tested on: IGROV-1
HCT-15 = tested on: HCT-15
UACC-257 = tested on: UACC-257
SK-MEL-2 = tested on: SK-MEL-2
HCT-116 = tested on: HCT-116

| SMILES | GI50 (TK-10) | GI50 (OVCAR-8) | GI50 (NCI-H522) | GI50 (HL-60) | GI50 (NCI-H23) | GI50 (HOP-92) | GI50 (A549) | GI50 (SN12C) | GI50 (ACHN) | GI50 (OVCAR-3) | GI50 (SF-268) | GI50 (COLO 205) | GI50 (EKVX) | GI50 (CCRF-CEM) | GI50 (SF-539) | GI50 (IGROV-1) | GI50 (HCT-15) | GI50 (UACC-257) | GI50 (SK-MEL-2) | GI50 (HCT-116) |
| --- | --- | --- | --- | --- | --- | --- | --- | --- | --- | --- | --- | --- | --- | --- | --- | --- | --- | --- | --- | --- |
| CN(CC(=O)O)c1ncc2c(n1)-c1ccccc1OC2c1ccccc1 (stereo not given) | > 100 µM (inactive) | > 100 µM (inactive) | > 100 µM (inactive) | 33.2 µM (inactive) | 51.6 µM (inactive) | > 100 µM (inactive) | 76.4 µM (inactive) | > 100 µM (inactive) | > 100 µM (inactive) | > 100 µM (inactive) | > 100 µM (inactive) | > 100 µM (inactive) | > 100 µM (inactive) | 44.3 µM (inactive) | > 100 µM (inactive) | > 100 µM (inactive) | > 100 µM | > 100 µM (inactive) | 87.7 µM (inactive) | – |
| Cc1ccc(C2(O)c3ccccc3C(=O)N(C)C2(O)c2ccc(C)cc2)cc1 (stereo not given) | > 100 µM (inactive) | 25.5 µM (inactive) | > 100 µM (inactive) | 16.1 µM (inactive) | > 100 µM (inactive) | 18.6 µM (inactive) | > 100 µM (inactive) | 58.3 µM (inactive) | – | > 100 µM (inactive) | 21.2 µM (inactive) | > 100 µM (inactive) | 32.8 µM (inactive) | 15.4 µM (inactive) | 45.1 µM (inactive) | > 100 µM (inactive) | 52 µM | > 100 µM (inactive) | > 100 µM (inactive) | 49.2 µM (inactive) |
| COc1ccc2c(c1)OC[C@@H]1c3cc(O)c(OCc4ccccc4)cc3O[C@H]21 | 32.7 µM (inactive) | 29.5 µM (inactive) | 13.5 µM (inactive) | 16.8 µM (inactive) | 16.4 µM (inactive) | 14.8 µM (inactive) | 26.2 µM (inactive) | – | 22.9 µM (inactive) | 38 µM (inactive) | 28.3 µM (inactive) | 27.9 µM (inactive) | 19.4 µM (inactive) | 34.3 µM (inactive) | 90.4 µM (inactive) | 26.5 µM (inactive) | 22 µM | 17.9 µM (inactive) | 17.3 µM (inactive) | 29.9 µM (inactive) |
| COc1ccc(CC2COc3cc(O)cc(O)c3C2=O)cc1O (stereo not given) | 15.4 µM (inactive) | 11.9 µM (inactive) | 4.7 µM (inactive) | 2.4 µM (inactive) | 16.6 µM (inactive) | 22.3 µM (inactive) | 11.9 µM (inactive) | 8.34 µM (inactive) | 24.4 µM (inactive) | 2.3 µM (inactive) | 14.7 µM (inactive) | 20.4 µM (inactive) | > 100 µM (inactive) | 3.4 µM (inactive) | 2.97 µM (inactive) | 4.23 µM (inactive) | 3.16 µM | > 100 µM (inactive) | 3.81 µM (inactive) | – |
| C[N+](C)(C)c1ncnc2c1ncn2C1CC(O)C(CO)O1 (stereo not given) | > 100 µM (inactive) | > 100 µM (inactive) | > 100 µM (inactive) | > 100 µM (inactive) | > 100 µM (inactive) | > 100 µM (inactive) | > 100 µM (inactive) | > 100 µM (inactive) | > 100 µM (inactive) | > 100 µM (inactive) | > 100 µM (inactive) | > 100 µM (inactive) | > 100 µM (inactive) | > 100 µM (inactive) | > 100 µM (inactive) | > 100 µM (inactive) | > 100 µM | > 100 µM (inactive) | > 100 µM (inactive) | > 100 µM (inactive) |
| Clc1ccc(CCn2ccc3ccccc32)c(Cl)c1 | > 100 µM (inactive) | > 100 µM (inactive) | > 100 µM (inactive) | > 100 µM (inactive) | > 100 µM (inactive) | > 100 µM (inactive) | > 100 µM (inactive) | > 100 µM (inactive) | > 100 µM (inactive) | > 100 µM (inactive) | > 100 µM (inactive) | > 100 µM (inactive) | > 100 µM (inactive) | > 100 µM (inactive) | > 100 µM (inactive) | > 100 µM (inactive) | > 100 µM | > 100 µM (inactive) | > 100 µM (inactive) | > 100 µM (inactive) |
| CCN(CC)CCn1nc2c3c(c(NCCN)ccc31)Sc1cc(O)ccc1-2 | 2.22 µM (inactive) | 0.535 µM (active) | 0.175 µM (active) | 0.0962 µM (active) | 0.451 µM (active) | 0.94 µM (active) | 0.176 µM (active) | 0.372 µM (active) | 0.579 µM (active) | 2.43 µM (inactive) | 0.493 µM (active) | 0.865 µM (active) | 1.4 µM (inactive) | 0.166 µM (active) | 0.406 µM (active) | 0.505 µM (active) | 3.03 µM | 1.84 µM (inactive) | 1.28 µM (inactive) | 0.327 µM (active) |
| CN(C)CC1CCC/C(=C\c2ccccc2)C1=O (stereo not given) | 2.36 µM (inactive) | 3.94 µM (inactive) | 1.57 µM (inactive) | 0.512 µM (active) | 10.2 µM (inactive) | 2.44 µM (inactive) | 19 µM (inactive) | 6.14 µM (inactive) | 3.5 µM (inactive) | 1.94 µM (inactive) | 2.94 µM (inactive) | 2.24 µM (inactive) | 17.9 µM (inactive) | 0.959 µM (active) | 4.04 µM (inactive) | 3.74 µM (inactive) | 2.14 µM | 2.55 µM (inactive) | 5.5 µM (inactive) | 1.56 µM (inactive) |
| COc1cccc(/C=C2/S/C(=N/Nc3nc(C)c(C(C)=O)s3)NC2=O)c1O | 27.6 µM (inactive) | 34.3 µM (inactive) | 17.3 µM (inactive) | 12.4 µM (inactive) | 35.3 µM (inactive) | 28.9 µM (inactive) | 37.9 µM (inactive) | 31.7 µM (inactive) | 22 µM (inactive) | 22.5 µM (inactive) | 40.6 µM (inactive) | 27.5 µM (inactive) | 24.9 µM (inactive) | 18.2 µM (inactive) | 34.8 µM (inactive) | 35.9 µM (inactive) | 26.2 µM | 25.4 µM (inactive) | 21.2 µM (inactive) | 30.7 µM (inactive) |
| CSC1(C)C(=O)Nc2c(OCc3ccccc3)cc([N+](=O)[O-])cc21 (stereo not given) | > 100 µM (inactive) | 21.5 µM (inactive) | 94.8 µM (inactive) | 40.7 µM (inactive) | 75.9 µM (inactive) | 20 µM (inactive) | 21.5 µM (inactive) | 13.4 µM (inactive) | > 100 µM (inactive) | > 100 µM (inactive) | 31.6 µM (inactive) | > 100 µM (inactive) | 29.4 µM (inactive) | 84.3 µM (inactive) | 66.1 µM (inactive) | 54.8 µM (inactive) | 50.5 µM | > 100 µM (inactive) | 38.7 µM (inactive) | 85.5 µM (inactive) |
| Cc1ccc(O)c(C(c2ccc([N+](=O)[O-])cc2)c2cc(C)ccc2O)c1 | 16.3 µM (inactive) | 11.7 µM (inactive) | 12.3 µM (inactive) | 1.47 µM (inactive) | 7.93 µM (inactive) | 11.1 µM (inactive) | 9.66 µM (inactive) | 13.7 µM (inactive) | 6.1 µM (inactive) | 6.32 µM (inactive) | 5.57 µM (inactive) | 20.7 µM (inactive) | 14.3 µM (inactive) | 10.8 µM (inactive) | 15.3 µM (inactive) | 11 µM (inactive) | 8.18 µM | 14.6 µM (inactive) | 11.5 µM (inactive) | 14.4 µM (inactive) |
| Cn1c(=O)c2nc3sc4c(n3c2n(C)c1=O)C(=O)c1ccccc1C4=O | > 100 µM (inactive) | > 58.6 µM (inactive) | 11 µM (inactive) | 11.2 µM (inactive) | 57.3 µM (inactive) | 16.5 µM (inactive) | > 81.7 µM (inactive) | > 69.2 µM (inactive) | > 32.4 µM (inactive) | 12.1 µM (inactive) | > 78.5 µM (inactive) | > 73.5 µM (inactive) | > 100 µM (inactive) | 17.6 µM (inactive) | > 61.7 µM (inactive) | > 54.3 µM (inactive) | > 59.6 µM | > 88.9 µM (inactive) | > 55.5 µM (inactive) | > 54.8 µM (inactive) |
| CC1(C)[C@H](C(=O)O)N2C(=O)[C@@H](NS(=O)(=O)c3ccc([N+](=O)[O-])cc3)[C@H]2S1(=O)=O | > 100 µM (inactive) | > 100 µM (inactive) | > 100 µM (inactive) | > 100 µM (inactive) | > 100 µM (inactive) | > 100 µM (inactive) | > 100 µM (inactive) | > 100 µM (inactive) | > 100 µM (inactive) | > 100 µM (inactive) | > 100 µM (inactive) | > 100 µM (inactive) | > 100 µM (inactive) | > 100 µM (inactive) | > 100 µM (inactive) | > 100 µM (inactive) | > 100 µM | > 100 µM (inactive) | > 100 µM (inactive) | > 100 µM (inactive) |
| FC(F)(F)c1ccc(/N=N/N2CCCC2)cc1 | > 100 µM (inactive) | – | > 100 µM (inactive) | > 100 µM (inactive) | 65.8 µM (inactive) | 80 µM (inactive) | > 100 µM (inactive) | > 100 µM (inactive) | > 100 µM (inactive) | > 100 µM (inactive) | > 100 µM (inactive) | > 100 µM (inactive) | > 100 µM (inactive) | > 100 µM (inactive) | > 100 µM (inactive) | > 100 µM (inactive) | > 100 µM | > 100 µM (inactive) | > 100 µM (inactive) | > 100 µM (inactive) |

Reference: ChEMBL document CHEMBL1201862, “PubChem BioAssay data set” (2004)
